Measured values taken from ChEMBL document CHEMBL5532707, “SETDB1 as a cancer target: challenges and perspectives in drug design” (RSC Med Chem, 2024).

Assays:
cells = conditions: Homo sapiens, MDA-MB-231, 48 h
Description: Downregulation of H3K9me2 level in human MDA-MB-231 cells measured after 48 hrs by Western blot analysis

MDA-MB-231 = assay: Antiproliferative activity against human MDA-MB-231 cells by MTT assay; assay type: functional, cell-based

IC50 (cells) | EC50 (MDA-MB-231) | Structure (SMILES)
81 nM |  | COc1cc2c(NC3CCN(C(C)C)CC3)nc(C3CCCCC3)nc2cc1OCCCN1CCCC1
500 nM | 2700 nM | COc1cc2nc(N3CCCN(C)CC3)nc(NC3CCN(Cc4ccccc4)CC3)c2cc1OC
